Results as given in patent US20200024278A1, “COMPOSITION COMPRISING ANTIBIOTIC COMPOUND AND AN HETEROCYCLIC COMPOUND AND THEIR USE IN PREVENTING OR TREATING BACTERIAL INFECTIONS” (MUTABILIS, priority 2016, published 2020).

Assays:
[1] = test system: ECO 190317; test: MIC, broth microdilution (CLSI), substance alone or ATB combined with compound at 4 or 8 μg/mL; assay type: cell-based, E. coli; settings: Escherichia coli; substance alone; ECO 190317; read-out: MIC
Method in brief: (§1)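 CLSI M7-A7 broth microdilution. ca-MHB, 5·10^5 CFU/mL log-phase cells, 16-20 h, 35° C, ambient air. Fosfomycin wells + 25 μg/ml glucose-6-phosphate. Visual MIC read.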

[2] = test system: ECO UFR39; test: as above; assay type: cell-based, E. coli; settings: Escherichia coli; substance alone; ECO UFR39; read-out: MIC
Method in brief: as §1

[3] = test system: KPN BAA-1898; test: as above; assay type: cell-based, K. pneumoniae; settings: Klebsiella pneumoniae, BAA1898; substance alone; KPN BAA-1898; read-out: MIC
Protocol: (§2) Compounds of the present invention were assessed against genotyped bacterial strains alone or in combination with an antibacterial. In the assays, MICs of said compounds or combination of antibiotics with fixed concentrations of said compounds (4 or 8 μg/mL) were determined by the broth microdilution method according to the Clinical Laboratory Standards Institute (CLSI-M7-A7). Briefly, compounds alone according to the invention were prepared in DMSO and spotted (2 μL each) on sterile polystyrene plates (Corning, 3788). Combinations of compounds and antibiotics dilutions were prepared in DMSO and spotted (1 μL each) on sterile polystyrene plates (Corning, 3788). Log phase bacterial suspensions were adjusted to a final density of 5·10^5 CFU/mL in cation-adjusted Mueller-Hinton broth (ca-MHB; Becton-Dickinson and Company) and added to each well (98 μL). Assays including Fosfomycin were supplemented with 25 μg/ml of Glucose-6-phosphate. Microplates were incubated for 16-20 h at 35° C. in ambient air. The MIC of the compounds was defined as the lowest concentration of said compounds that prevented bacterial growth as read by visual inspection. The MIC of ATB at each compound concentration was defined as the lowest concentration of ATB that prevented bacterial growth as read by visual inspection.

[4] = test system: KPN UFR42; test: as above; assay type: cell-based, K. pneumoniae; settings: Klebsiella pneumoniae; substance alone; KPN UFR42; read-out: MIC
Protocol: as §2

[5] = test system: ECL P99; test: as above; assay type: cell-based, E. cloacae; settings: Enterobacter cloacae; substance alone; ECL P99; read-out: MIC
Method in brief: as §1

[6] = test system: PAE 105250; test: as above; assay type: cell-based, P. aeruginosa; settings: PAE 105250; for MIC ATB combined with compound: compound @8 μg/ml
Method in brief: as §1

[7] = test system: PAE UFR48; test: as above; assay type: cell-based, P. aeruginosa; settings: PAE UFR48; for MIC ATB combined with compound: compound @8 μg/ml
Method in brief: as §1

[8] = test system: PAE UFR90; test: as above; assay type: cell-based, P. aeruginosa; settings: PAE UFR90; for MIC ATB combined with compound: compound @8 μg/ml
Method in brief: as §1

[9] = test system: SAU 29213; test: as above; assay type: cell-based, S. aureus; settings: for MIC ATB combined with compound: compound @8 μg/ml, SAU 29213
Method in brief: as §1

[10] = test system: SPN 49619; test: as above; assay type: cell-based, S. pneumoniae; settings: SPN 49619; for MIC ATB combined with compound: compound @8 μg/ml
Method in brief: as §1

[11] = test system: PAE UFR48; test: Fractional Inhibitory Concentration Index, checkerboard assay; assay type: cell-based, P. aeruginosa
Protocol: (§3) Method 2: Determination of the Fractional Inhibitory Concentration Index
(§4) Serial 2-fold dilutions of each antibiotic tested were prepared in ca-MHB and mixed in each well of a 96-well microtiter plate so that each row (and column) contained a fixed amount of one agent and increasing amounts of the second agent. The range of drug concentrations used in the checkerboard analysis was such that the dilution range encompassed the MIC for each drug used in the analysis. Broth microdilution plates were inoculated with each strain (Table 3) to yield 5.10^5 CFU/mL in a 100 μL final volume and incubated for 18 h at 35° C. in ambient air. Assays including Fosfomycin were supplemented with 25 μg/ml of Glucose-6-phosphate. MICs were determined after overnight incubation, and the fractional inhibitory concentration (FIC) index was calculated for each well. The FIC index (FICI) was calculated for each combination according to the equation FICI=FICa+FICb=(MIC of drug A in combination/MIC of drug A alone)+(MIC of drug B in combination/MIC of drug B alone). The FICI was interpreted as follows: synergy, FICI […]; indifference, 0.5<FIC<4; and antagonism, FICI>4. The checkerboard assays were performed in duplicate.

[12] = test system: PAE UFR90; test: as above; assay type: cell-based, P. aeruginosa
Protocol: as §3, §4

[13] = test system: KPN UFR68; test: as above; assay type: cell-based, K. pneumoniae
Protocol: as §3, §4

[14] = test system: ECL P99; test: as above; assay type: cell-based, E. cloacae
Protocol: as §3, §4

[15] = test system: ECO 190317; test: as above; assay type: cell-based, E. coli
Protocol: as §3, §4

[16] = Pseudomonas aeruginosa, substance alone, read-out: MIC

MIC [1]: 0.25 µg/mL
MIC [2]: 0.5 µg/mL
MIC [3]: 16 µg/mL
MIC [4]: 16 µg/mL
MIC [5]: 0.5 µg/mL
MIC ATB combined with compound ([6]; ATB ATM): <0.031 µg/mL
MIC ATB combined with compound ([6]; ATB FEP): <0.031 µg/mL
MIC ATB combined with compound ([6]; ATB FOS): 16 µg/mL
MIC ATB combined with compound ([6]; ATB MEM): 0.063 µg/mL
MIC ATB combined with compound ([6]; ATB PIP): 0.063 µg/mL
MIC [6, 16]: 8 µg/mL
MIC ATB combined with compound ([7]; ATB ATM): 2 µg/mL
MIC ATB combined with compound ([7]; ATB FEP): <0.031 µg/mL
MIC ATB combined with compound ([7]; ATB FOS): 2 µg/mL
MIC ATB combined with compound ([7]; ATB MEM): <=0.031 μg/mL
MIC ATB combined with compound ([7]; ATB PIP): <0.031 µg/mL
MIC [7, 16]: 8 µg/mL
MIC ATB combined with compound ([8]; ATB ATM): <0.031 µg/mL
MIC ATB combined with compound ([8]; ATB FEP): <0.031 µg/mL
MIC ATB combined with compound ([8]; ATB FOS): <0.125 µg/mL
MIC ATB combined with compound ([8]; ATB MEM): <0.031 µg/mL
MIC ATB combined with compound ([8]; ATB PIP): <0.031 µg/mL
MIC [8, 16]: 8 µg/mL
MIC ATB combined with compound ([9]; ATB ATM): >32 µg/mL
MIC ATB combined with compound ([9]; ATB FEP): 1 µg/mL
MIC ATB combined with compound ([9]; ATB FOS): <=0.125 μg/mL
MIC ATB combined with compound ([9]; ATB MEM): 0.063 µg/mL
MIC ATB combined with compound ([9]; ATB PIP): 0.5 µg/mL
MIC ([9]; Staphylococcus aureus, substance alone, SAU 29213 (MSSA 29213), read-out: MIC): 32 µg/mL
MIC ATB combined with compound ([10]; ATB ATM): <0.031 µg/mL
MIC ATB combined with compound ([10]; ATB FEP): <0.031 µg/mL
MIC ATB combined with compound ([10]; ATB FOS): <=0.125 μg/mL
MIC ATB combined with compound ([10]; ATB MEM): <0.031 µg/mL
MIC ATB combined with compound ([10]; ATB PIP): <0.031 µg/mL
MIC ([10]; Streptococcus pneumoniae, substance alone, read-out: MIC): 1 µg/mL
SMILES: NCCn1c2c(sc1=O)C1CN(C2)C(=O)N1OS(=O)(=O)[O-].[Na+] (stereo not drawn) [Example 3, sodium and 2,2,2-trifluoroacetate [5-(2-azaniumethyl)-4,9-dioxo-3-thia-5,8,10-triaza-tricyclo[6.2.1.0^2,6]undec-2(6)-en-10-yl] sulfate]
FIC index min ([11]; compound +ATM): 0.13
FIC index min ([11]; compound +FEP): 0.50
FIC index min ([11]; compound +FOS): 0.34
FIC index min ([11]; compound +MEM): 0.75
FIC index min ([11]; compound +PIP): 0.31
FIC index min ([12]; compound +ATM): 0.75
FIC index min ([12]; compound +FEP): 0.32
FIC index min ([12]; compound +FOS): 0.88
FIC index min ([12]; compound +MEM): 0.75
FIC index min ([12]; compound +PIP): 0.63
FIC index min ([13]; compound +ATM): 0.049
FIC index min ([13]; compound +FEP): 0.021
FIC index min ([13]; compound +FOS): 0.080
FIC index min ([13]; compound +MEM): 0.16
FIC index min ([13]; compound +PIP): 0.10
FIC index min ([14]; compound +ATM): 0.28
FIC index min ([14]; compound +FEP): 0.31
FIC index min ([14]; compound +FOS): ≤0.13
FIC index min ([14]; compound +MEM): 0.54
FIC index min ([14]; compound +PIP): 0.13
FIC index min ([15]; compound +ATM): 0.27
FIC index min ([15]; compound +FEP): 0.19
FIC index min ([15]; compound +FOS): 0.66
FIC index min ([15]; compound +MEM): 0.56
FIC index min ([15]; compound +PIP): ≤0.5
